Results published in US20260234188A1, “CHEMOKINE-BINDING PEPTIDES” (Oxford University Innovation Limited, priority 2022, published 2026).
Entries after “also recorded” stand apart in the source; their conditions may differ. Ends that are not written are not given here. Peptide text beside a SMILES is read from it.

Legend:
[1] = target: T1, CXCL5 (Homo sapiens, UniProt P42830); experiment: CXCL5-induced cell migration assay; type: cell-based; details: HD2 mutant peptides 10 μM, chemokine at EC80
T1 sequence (P42830 37-114): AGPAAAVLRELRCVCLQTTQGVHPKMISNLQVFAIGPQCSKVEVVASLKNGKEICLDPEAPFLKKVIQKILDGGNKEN
Description: FIGS. 24 and 25. Effect of exemplar mutant HD2 peptides on chemotaxis. Box-whisker plots showing the effect of the exemplar mutant HD2 peptides on cell migration induced by indicated human chemokines. All experiments were performed as at least three technical and between one to three biological replicates, and individual data points are indicated. […] Chemokine and cell type names are indicated. HD2SCR is a scrambled version of HD2 used as negative control. All peptides were at 10 μM final concentration and chemokines at EC80 doses. Statistically significant differences (compared to control, coloured blue), using Dunnett's test with correction for multiple comparisons, are indicated by asterisks: ****=P≤0.0001, ***=P≤0.001, **=P≤0.01, *=P≤0.05.
The J:CXCR1 cell line was generated by transfecting Jurkat cells by electroporation with PvuI-linearized plasmid D1398 and selecting with blasticidin (Sigma-Aldrich, Cat #203350, […]). […] J:CXCR1 cells were cultured in RPMI-1640 media (Gibco), supplemented with 10% FBS and 5 mM L-Glutamine with blasticidin. For J:CXCR1 migration assays, 300,000 cells/well were added to the top chamber of a 3 μm Transwell insert (Corning) in 50 μL of migration media (RPMI-1640, 0.5% FBS, 4 mM L-Glutamine, 0.05% DMSO). […] Cell counts were determined by Attune NxT Flow Cytometer Plate Reader (ThermoFisher), based on cell size parameters FSC-H/SSC-H. Experiments were performed in 3 technical and 3 biological replicates. […] Statistical significances between control experimental groups was evaluated using Dunnett's test. […] EC80 was calculated by fitting a chemokine dose-response curve with 3 parameters (fixing the top to 100%). IC50 was calculated by fitting an inhibitor response curve with 4 parameters.
Migration assays using THP1, activated T-cell (ATC) and J:CXCR1 (Jurkat cells stably transfected with CXCR1 receptor) were performed as described previously. […] EC80 was calculated by fitting a chemokine dose-response curve with 3 parameters (fixing the top to 100%). IC50 was calculated by fitting an inhibitor response curve with 4 parameters. […]

[2] = system: panel of 24 biotinylated chemokines; experiment: Phage-display screen of HD2 NNK saturation mutagenesis library; type: binding, human; details: for Chemokines Bound log2E 1-5 / Chemokines Bound log2E > 5: HD2 saturation mutants, chemokines on streptavidin beads, UniProt entry names

Compound	chemotaxis compared with the parental HD2 peptide [1]	Chemokines Bound log2E 1-5 [2]	Chemokines Bound log2E > 5 [2]	mean log 2 E compared to parental HD2 ([2]; over XC (CXC/CX3C) chemokines)	mean log 2 E compared to parental HD2 ([2]; over all chemokines)	peak log 2 E ([2]; best mutation at each residue)
EEDDYWAYAPLTCYFT [HD2_W6]	significant reduction in chemotaxis	CCL1, CCL17, CCL18, CCL2,; also recorded: CCL20, CCL3, CCL4, IL8	CCL19, CCL25,; also recorded: CCL28, X3CL1,; also recorded: CXL10, CXL11,; also recorded: SDF1, CXL13,; also recorded: CXL14	significant improvement	–	–
EEDDYTAYWPLTCYFT [A9W]	significant reduction in chemotaxis	–	–	–	–	–
EEDDWTAYAPLTCYFT-NH2 [HD2_W5, EEDDWTAYAPLTCYFT]	–	CCL1, CCL11, CCL15, CCL17,; also recorded: CCL18, CCL19, CCL2, CCL22,; also recorded: CCL28, CCL3, CCL4, X3CL1,; also recorded: CXL11, SDF1, IL8	CXL10, CXL13	significant improvement	significant improvement	–
CC(C)C[C@H](NC(=O)[C@@H]1CCCN1C(=O)[C@H](C)NC(=O)[C@H](Cc1ccc(O)cc1)NC(=O)[C@H](C)NC(=O)[C@@H](NC(=O)[C@H](Cc1ccc(O)cc1)NC(=O)[C@H](CC(=O)O)NC(=O)[C@H](CC(=O)O)NC(=O)[C@H](CCC(=O)O)NC(=O)[C@@H](N)CCC(=O)O)[C@@H](C)O)C(=O)N[C@H](C(=O)N[C@@H](CS)C(=O)N[C@@H](Cc1ccc(O)cc1)C(=O)N[C@@H](Cc1ccccc1)C(=O)N[C@@H](CS)C(N)=O)[C@@H](C)O [HD2_C16, EEDDYTAYAPLTCYFC] (H-EEDDYTAYAPLTCYFC-NH2; N-terminus assumed)	significant reduction in chemotaxis	CCL1, X3CL1, CXL10, CXL11,; also recorded: CXL14	IL8	–	–	highest peak log 2 E at that residue
